Reference: patent publication US20200407382A1, “POLYMORPHIC FORMS OF (9-[(R)-2-[[(S)-[[(S)-1-(ISOPROPOXYCARBONYL)ETHYL]AMINO]PHENOXY PHOSPHINYL]METHOXY]PROPYL] ADENINE AND PHARMACEUTICALLY ACCEPTABLE SALTS THEREOF” (CIPLA LIMITED, priority 2017, published 2020)

Description: FIG. 10 illustrates a dynamic vapor sorption (DVS) isotherm profile of Form C4 of (9-[(R)-2-[[(S)-[[(S)-1-(isopropoxycarbonyl)ethyl]amino] phenoxyphosphinyl] methoxy]propyl] adenine hemifumarate , according to another embodiment. For the DVS measurement a sample of crystalline Form C4 was cycled through changing humidity conditions to determine its hygroscopicity. The sample was analyzed using a Surface Measurement System DVS-1 Dynamic Vapor Sorption System. About 100 mg of crystalline Form C4 was placed into a mesh vapor sorption balance pan and loaded into a dynamic vapor sorption balance as part of the
Surface Measurement System. Data was collected in 1-minute intervals. Nitrogen was used as the carrier gas. The sampled crystalline Form C4 was subjected to a ramping profile from 0-95% relative humidity (RH) at 5 and 10% increments, maintaining the sample at each step until a stable weight had been achieved (99.5% step completion). After completion of the Sorption cycle, the sample was dried using the same procedure, but all the way down to 95% RH to 30% RH (10% RH interval) and from 30% RH to 5% RH (5% RH interval). The weight change during the Sorption/desorption cycles were plotted, allowing for the hygroscopic nature of the sample to be determined.
• 1. The hygroscopicity was studied at 25° C. using an SMS DVS intrinsic analyser. • 2. About 100 mg of sample was placed in a tared sample holder at an initial ambient room humidity. • 3. A total wet/dry nitrogen flow rate of 270 cc/min was used throughout the study. • 4. Solids were studied by performing one full cycle of the following program: 300 minutes of drying at 25° C. under dry N2, followed by settings of 0, 5, 10, 15, 20, 25, 30, 40, 50, 60, 70, 80, 90 and 95% RH, with exposure time at each humidity set point dependent upon 99.5% confidence in the F1 fit model or 60 minutes. The maximum time allowed at any one humidity set point was 60 minutes. Followed by decreasing 95% RH to 30% RH (10% RH interval) and from 30% RH to 5% RH (5% RH interval). […]. The sample was maintained under dry N2 after the cycle was completed. • 5. Percent weight gain was calculated based on the dry weight basis.

CC(C)OC(=O)[C@H](C)N[P@](=O)(CO[C@H](C)Cn1cnc2c(N)ncnc21)Oc1ccccc1 [Form C4, (9-[(R)-2-[[(S)-[[(S)-1-(isopropoxycarbonyl)ethyl]amino]phenoxyphosphinyl]methoxy]propyl]adenine hemifumarate]
hygroscopicity (DVS isotherm) (25° C., 0-95% RH sorption/desorption cycles): non-hygroscopic | hysteresis between sorption and desorption cycles (DVS, 0-95% RH): very small hysteresis | change of crystalline form during DVS (XRPD post DVS vs pre-DVS) (XRPD pattern post DVS analysis compared with FIG. 4): no change in the crystalline Form C4 | increase in mass during the Sorption cycle (between 0% and 95% RH, 25° C.): about 1.7%
